Strand notation (5' to 3'): a small letter for the sugar, then the base; units joined by * are phosphorothioate-linked, units joined directly phosphodiester-linked; [ ] holds rarer units or linkages, { } end groups; capitals alone tell only the bases. k = constrained ethyl (cEt); [5mC] = 5-methylcytosine; d = 2'-deoxy (DNA)
Tested on: Yap1 mRNA
Assay: Antisense inhibition of human Yap1 in A-431 cells by cEt gapmers, single dose (Example 2, RTS4814)
Assay type: cell-based
In short: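 A-431 cells (5,000/well) received 2,000 nM oligonucleotide by free uptake for about 48 h. Yap1 mRNA was then quantified by RT-qPCR with primer probe set RTS4814, normalized to RIBOGREEN total RNA, and reported as % of untreated control; asterisked values mark oligos inside the amplicon.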

[1] = Table 22, Yap1 mRNA as percent of untreated control, 3-10-3 cEt gapmers, single dose
[2] = Table 24, Yap1 mRNA as percent of untreated control, 3-10-3 cEt gapmers targeting SEQ ID NO.: 1, and 2
[3] = Table 23, Yap1 mRNA as percent of untreated control, 3-10-3 cEt gapmers, single dose
[4] = Table 32, Yap1 mRNA, percent of untreated control, 3-10-3 cEt gapmers targeting SEQ ID NO.: 1, and 2
[5] = Table 5, A-431 cells, 5,000 cells per well, free uptake, 2,000 nM modified oligonucleotide, approx. 48 hours, RTS4814, normalized to RIBOGREEN, Yap1 mRNA relative to untreated control cells
[6] = Table 33, Yap1 mRNA, percent of untreated control, 3-10-3 cEt gapmers targeting SEQ ID NO.: 1, and 2
[7] = Table 25, Yap1 mRNA as percent of untreated control, 3-10-3 cEt gapmers targeting SEQ ID NO.: 1, and 2
[8] = Table 18, A-431 cells, 5,000 cells per well, free uptake, 2,000 nM modified oligonucleotide, approx. 48 hours, RTS4814, normalized to RIBOGREEN, Yap1 mRNA as percent of untreated control
[9] = A-431 cells, 5,000 cells per well, free uptake, 2,000 nM modified oligonucleotide, approx. 48 hours, RTS4814, normalized to RIBOGREEN, Table 4, asterisk (*) = targets amplicon region of primer probe set
[10] = Yap1 mRNA as percent of untreated control, A-431 cells, 3-10-3 cEt gapmers targeting SEQ ID NO.: 1, and 2, Table 31
[11] = Yap1 mRNA as percent of untreated control, A-431 cells, 3-10-3 cEt gapmers targeting SEQ ID NO.: 1, and 2, Table 30
[12] = Table 19, A-431 cells, 5,000 cells per well, free uptake, 2,000 nM modified oligonucleotide, approx. 48 hours, RTS4814, normalized to RIBOGREEN, Yap1 mRNA as percent of untreated control
[13] = Table 6, A-431 cells, 5,000 cells per well, free uptake, 2,000 nM modified oligonucleotide, approx. 48 hours, RTS4814, normalized to RIBOGREEN, Yap1 mRNA relative to untreated control cells
[14] = Table 21, Yap1 mRNA, percent of untreated control, 3-10-3 cEt gapmers targeting SEQ ID NO.: 1 and 2

## 1075944 (kT*kA*kT*dT*dA*dG*dG*dA*dA*d[5mC]*dA*dG*dA*kT*k[5mC]*kA; antisense) [Compound 1075944]
[1]
  YAP1 (% UTC): 25 % UTC

## 1075112 (antisense kA*kT*kA*dT*dA*dG*dG*dA*dA*dT*dA*dT*dG*kG*kG*kT) [Compound 1075112]
[1]
  YAP1 (% UTC): 6 % UTC

## 1076010 (kT*kA*kT*dA*dA*dA*d[5mC]*dA*dA*dT*dA*dG*d[5mC]*kG*kA*kA; antisense) [Compound 1076010]
[2]
  YAP1 (% UTC): 44 % UTC

## 1076361 (kT*kG*kG*dG*dA*dA*dA*dA*dG*d[5mC]*dT*dA*d[5mC]*k[5mC]*kA*k[5mC]; antisense) [Compound 1076361]
[3]
  YAP1 (% UTC): 87 % UTC

## 1075474 (kT*kT*kT*dA*dA*dT*dA*dG*dG*d[5mC]*dT*d[5mC]*dT*kA*kT*k[5mC]; antisense) [compound 1075474]
[4]
  YAP1 (% UTC): 68 % UTC

## 716377 (kG*kG*kT*dA*dT*d[5mC]*dT*d[5mC]*dA*dA*dA*dA*dG*kA*kA*kG; antisense) [Compound 716377]
[5]
  YAP1 (% UTC): 76 % UTC

## 716422 (kA*kG*kT*dA*dT*d[5mC]*dT*dT*dG*d[5mC]*dT*dG*dG*kA*k[5mC]*kG; antisense) [Compound 716422]
[5]
  YAP1 (% UTC): 39 % UTC

## 1076147 (kA*kT*kT*dA*dA*d[5mC]*dT*d[5mC]*dA*d[5mC]*dG*dA*dA*kG*kA*k[5mC]; antisense) [compound 1076147]
[6]
  YAP1 (% UTC): 25 % UTC

## 1074474 (k[5mC]*k[5mC]*kA*dA*d[5mC]*d[5mC]*d[5mC]*d[5mC]*d[5mC]*d[5mC]*d[5mC]*dA*d[5mC]*k[5mC]*kG*kA; antisense) [Compound 1074474]
[2]
  YAP1 (% UTC): 71 % UTC

## 1075179 (antisense kA*kA*kT*dT*dA*dG*d[5mC]*d[5mC]*dG*dG*dT*d[5mC]*d[5mC]*k[5mC]*kA*kG) [Compound 1075179]
[7]
  YAP1 (% UTC): 107 % UTC

## 1075876 (kG*kT*kA*dT*dT*dT*dA*dT*dG*dA*dT*dG*dA*kT*kT*k[5mC]; antisense) [Compound 1075876]
[8]
  YAP1 (% UTC): 6 % UTC

## 716526 (antisense kT*k[5mC]*kA*dA*dA*dG*d[5mC]*dA*d[5mC]*dT*dG*dT*dG*k[5mC]*k[5mC]*kA) [Compound 716526]
[9]
  YAP1 (% UTC): 88 % UTC

## 716379 (k[5mC]*k[5mC]*kA*dG*dA*dA*dG*dA*dT*dG*dT*d[5mC]*dT*kT*kT*kG; antisense) [Compound 716379]
[9]
  YAP1 (% UTC): 123 % UTC

## 1075529 (kA*kA*kA*dT*d[5mC]*dG*dA*dA*dG*dG*dG*d[5mC]*dA*kA*kA*k[5mC]; antisense) [Compound 1075529]
[3]
  YAP1 (% UTC): 84 % UTC

## 716566 (kG*kG*kT*dA*dA*d[5mC]*dT*d[5mC]*dT*dT*d[5mC]*dT*dT*kT*k[5mC]*k[5mC]; antisense) [Compound 716566]
[5]
  YAP1 (% UTC): 102 % UTC

## 1076305 (kT*kA*k[5mC]*dT*dA*dA*dT*dA*dA*dG*d[5mC]*d[5mC]*dT*k[5mC]*kA*k[5mC]; antisense) [compound 1076305]
[10]
  YAP1 (% UTC): 37 % UTC

## 1076393 (k[5mC]*kT*kT*dT*dA*d[5mC]*dT*dT*dA*d[5mC]*dT*dG*dG*kT*kG*kG; antisense) [Compound 1076393]
[3]
  YAP1 (% UTC): 4 % UTC

## 1074376 (antisense kA*kA*k[5mC]*dG*dG*dT*dT*d[5mC]*dT*dG*d[5mC]*dT*dG*kT*kG*kA) [Compound 1074376]
[1]
  YAP1 (% UTC): 44 % UTC

## 1075908 (kA*kA*kT*dA*dA*dG*dG*dA*dG*dT*dA*dG*dG*kT*kG*kG; antisense) [Compound 1075908]
[8]
  YAP1 (% UTC): 50 % UTC

## 1076080 (k[5mC]*kA*kT*dT*dA*dG*d[5mC]*dA*dG*dT*dT*d[5mC]*dA*k[5mC]*kT*kA; antisense) [compound 1076080]
[11]
  YAP1 (% UTC): 55 % UTC

## 1076197 (kT*kA*kT*dT*dA*dT*d[5mC]*dA*dA*dG*dG*dG*dA*kA*kT*kT; antisense) [Compound 1076197]
[12]
  YAP1 (% UTC): 94 % UTC

## 1076498 (kT*kT*kA*d[5mC]*dA*dA*dT*dA*d[5mC]*d[5mC]*dT*dT*dA*kT*kG*kA; antisense) [compound 1076498]
[4]
  YAP1 (% UTC): 70 % UTC

## 716456 (kA*k[5mC]*k[5mC]*dA*d[5mC]*dA*d[5mC]*dT*dA*dT*dT*dA*dT*kA*kA*kA; antisense) [Compound 716456]
[13]
  YAP1 (% UTC): 96 % UTC

## 1075051 (antisense kA*kA*kT*dA*dA*dA*d[5mC]*dA*dA*d[5mC]*d[5mC]*d[5mC]*dA*kA*k[5mC]*kG) [Compound 1075051]
[7]
  YAP1 (% UTC): 56 % UTC

## 1075505 (kG*k[5mC]*kT*dA*dA*dA*dT*dT*dA*d[5mC]*dA*dG*dA*kG*kG*kT; antisense) [compound 1075505]
[10]
  YAP1 (% UTC): 18 % UTC

## 716579 (kA*kT*kA*dG*dA*dG*dA*dT*dT*dT*dT*d[5mC]*d[5mC]*k[5mC]*kT*k[5mC]; antisense) [Compound 716579]
[13]
  YAP1 (% UTC): 84 % UTC

## 716429 (kT*kG*kG*d[5mC]*dA*dT*d[5mC]*d[5mC]*dA*dT*d[5mC]*dA*dT*k[5mC]*k[5mC]*kA; antisense) [Compound 716429]
[13]
  YAP1 (% UTC): 28 % UTC

## 1075974 (kA*kA*kA*dA*dA*dA*dT*dT*d[5mC]*d[5mC]*dG*d[5mC]*dA*kA*k[5mC]*kA; antisense) [Compound 1075974]
Table 20, Yap1 mRNA, percent of untreated control, 3-10-3 cEt gapmers targeting SEQ ID NO.: 1 and 2
  YAP1 (% UTC): 39 % UTC

## 1074288 (antisense kG*kA*k[5mC]*dT*dG*dA*dT*dT*d[5mC]*dT*d[5mC]*dT*dG*kG*kT*kT) [compound 1074288]
[11]
  YAP1 (% UTC): 48 % UTC

## 1075826 (kT*kA*kG*dG*dG*dA*dA*dA*dA*d[5mC]*d[5mC]*dA*dT*kA*kG*k[5mC]; antisense) [compound 1075826]
[4]
  YAP1 (% UTC): 23 % UTC

## 1075173 (antisense k[5mC]*kT*kT*dT*dA*dG*dG*dG*d[5mC]*dA*dA*d[5mC]*dT*kG*kT*kA) [Compound 1075173]
[12]
  YAP1 (% UTC): 22 % UTC

## 1074567 (antisense kA*kA*k[5mC]*d[5mC]*dT*dA*d[5mC]*dT*d[5mC]*dA*d[5mC]*dT*dG*kA*kA*kT) [Compound 1074567]
[14]
  YAP1 (% UTC): 38 % UTC

## 1074923 (antisense kG*kG*kG*d[5mC]*dG*dG*dT*dA*dA*d[5mC]*dT*d[5mC]*dT*kT*k[5mC]*kT) [Compound 1074923]
[7]
  YAP1 (% UTC): 73 % UTC

## 1076037 (k[5mC]*kT*kT*dA*dA*dA*dT*dT*d[5mC]*dT*d[5mC]*dT*dT*kA*k[5mC]*kG; antisense) [Compound 1076037]
[12]
  YAP1 (% UTC): 21 % UTC

## 716401 (kA*kA*k[5mC]*dT*dG*dG*d[5mC]*dT*dA*d[5mC]*dG*d[5mC]*dA*kG*kG*kG; antisense) [Compound 716401]
[5]
  YAP1 (% UTC): 92 % UTC

## 716476 (kG*kA*kA*d[5mC]*dT*dA*d[5mC]*dA*dA*dA*d[5mC]*dT*dA*kG*kA*kA; antisense) [Compound 716476]
[5]
  YAP1 (% UTC): 91 % UTC

## 1076211 (kA*kA*kT*dT*dT*dA*dT*dA*dT*dG*d[5mC]*dT*d[5mC]*k[5mC]*k[5mC]*kT; antisense) [compound 1076211]
[6]
  YAP1 (% UTC): 22 % UTC

## 1074992 (antisense k[5mC]*kA*kA*dT*dT*dA*dT*dT*dT*dG*dA*d[5mC]*dT*k[5mC]*k[5mC]*k[5mC]) [compound 1074992]
[11]
  YAP1 (% UTC): 63 % UTC

## 1075975 (kG*kG*kA*dA*dA*dA*dA*dA*dA*dT*dT*d[5mC]*d[5mC]*kG*k[5mC]*kA; antisense) [Compound 1075975]
[14]
  YAP1 (% UTC): 84 % UTC

## 1074354 (antisense kG*kG*kA*d[5mC]*dA*d[5mC]*dT*dG*dT*dA*dG*d[5mC]*dT*kG*k[5mC]*kT) [compound 1074354]
[4]
  YAP1 (% UTC): 24 % UTC

## 1074442 (kG*kA*k[5mC]*d[5mC]*dA*dG*dT*dA*dA*dA*dT*d[5mC]*dA*kT*kG*kT; antisense) [Compound 1074442]
[2]
  YAP1 (% UTC): 21 % UTC

## 1075635 (antisense kA*kA*kT*dA*dA*dA*d[5mC]*dA*d[5mC]*d[5mC]*dT*d[5mC]*dG*k[5mC]*k[5mC]*kA) [compound 1075635]
[6]
  YAP1 (% UTC): 97 % UTC

— patent publication US11214803B2, “Modulators of YAP1 expression” (Ionis Pharmaceuticals, Inc., priority 2019, dated 2022)
